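Exposure lasted 48 hours, with cells grown in 96-well plates and compounds tested at five concentrations. GI50: concentration for 50% inhibition of growth. TGI is the concentration that stops growth completely.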

Among the test systems are ACHN renal; BT-549 breast; IGROV1 ovarian; M14 melanoma; NCI-H226 lung; OVCAR-3 ovarian; RPMI-8226 leukemia; SK-OV-3 ovarian; U251 CNS; UO-31 renal.
What all share (assay): NCI-60 cell line screen, 48 h

As to `COC(=O)C1CC23CCCN4CCC5(c6ccccc6N(C=O)C15CC2)C43` (stereo not given), the TGI in the assay with ACHN renal, with BT-549 breast, with IGROV1 ovarian, in the assay on M14 melanoma, in the assay with NCI-H226 lung and in the assay with OVCAR-3 ovarian was above 100 µM each time. In addition, the TGI in the assay on RPMI-8226 leukemia, with SK-OV-3 ovarian, with U251 CNS and in the assay with UO-31 renal was above 100 µM throughout.

As to `C=C1C(=O)O[C@H]2[C@H]1CC/C(COC(=O)CSCSCC(=O)OC/C1=C/CC[C@@]3(C)O[C@H]3[C@H]3OC(=O)C(=C)[C@@H]3CC1)=C\CC[C@@]1(C)O[C@@H]21`, the GI50 in the assay with ACHN renal is 1.33 µM; with BT-549 breast, 1.47 µM; in the assay with IGROV1 ovarian, 1.78 µM; in the assay on M14 melanoma it was 1.55 µM; with NCI-H226 lung it was 3.51 µM; in the assay on OVCAR-3 ovarian, 1.2 µM. The GI50 was 0.597 µM in the assay with RPMI-8226 leukemia, 5.1 µM in the assay on SK-OV-3 ovarian, 1.7 µM in the assay on U251 CNS and 1.27 µM in the assay with UO-31 renal. The TGI amounted to 2.6 µM with ACHN renal; 2.91 µM in the assay on BT-549 breast; 4.46 µM with IGROV1 ovarian; 3.22 µM with M14 melanoma; 13.9 µM in the assay on NCI-H226 lung; 2.54 µM with OVCAR-3 ovarian. The TGI in the assay with RPMI-8226 leukemia turned out to be 3.71 µM; in the assay on SK-OV-3 ovarian, 16.5 µM; with U251 CNS, 3.85 µM; in the assay with UO-31 renal, 2.56 µM.

Take `N=C1C(c2nc3ccccc3s2)=C(O)CN1c1ccc(F)c(Cl)c1`: the GI50 in the assay with ACHN renal was 17.4 µM; in the assay on BT-549 breast it was 30.2 µM; in the assay with IGROV1 ovarian it was 19.4 µM; in the assay with M14 melanoma, above 100 µM; in the assay with NCI-H226 lung, 6.11 µM; in the assay with OVCAR-3 ovarian, 17.7 µM. In addition, the GI50 in the assay with RPMI-8226 leukemia is 18.9 µM; in the assay with SK-OV-3 ovarian, 25.3 µM; in the assay on U251 CNS, 5.76 µM; in the assay on UO-31 renal, 14.7 µM. The TGI in the assay with ACHN renal was 57.8 µM; with BT-549 breast, above 100 µM; in the assay with IGROV1 ovarian, 58.3 µM; with M14 melanoma it was above 100 µM; with NCI-H226 lung, 55.4 µM; in the assay with OVCAR-3 ovarian, 60.4 µM. The TGI in the assay with RPMI-8226 leukemia was above 100 µM; with SK-OV-3 ovarian it was above 100 µM; with U251 CNS, 23.2 µM; with UO-31 renal it was 35.8 µM.

Turning to `N#Cc1ccc(OCc2nc(N)nc(N)c2-c2ccc(Cl)c(Cl)c2)cc1`, the GI50 is 0.8 µM in the assay on ACHN renal; 9.98 µM in the assay on BT-549 breast; 1.73 µM in the assay on IGROV1 ovarian; 0.741 µM with M14 melanoma; 4.86 µM with NCI-H226 lung; 5.24 µM with OVCAR-3 ovarian. The GI50 in the assay with RPMI-8226 leukemia was 5.42 µM; with SK-OV-3 ovarian, 4.72 µM; with U251 CNS, 0.589 µM; in the assay on UO-31 renal, 3.79 µM. Also, the TGI is above 100 µM in the assay on ACHN renal; above 100 µM with BT-549 breast; above 100 µM with IGROV1 ovarian; above 100 µM in the assay with M14 melanoma; above 100 µM with NCI-H226 lung; 38.2 µM in the assay with OVCAR-3 ovarian. The TGI in the assay on RPMI-8226 leukemia, with SK-OV-3 ovarian, in the assay with U251 CNS and in the assay with UO-31 renal was above 100 µM throughout.

Turning to `CCCCON(OC(=O)c1ccc2ccccc2c1)C(=O)c1ccccc1`, the GI50 is above 100 µM in the assay with ACHN renal; 92.3 µM in the assay with BT-549 breast; 44.1 µM in the assay with IGROV1 ovarian; above 100 µM with M14 melanoma; 74 µM in the assay on NCI-H226 lung; above 100 µM with OVCAR-3 ovarian. Further, the GI50 in the assay with RPMI-8226 leukemia is 74.2 µM; in the assay on SK-OV-3 ovarian it was above 100 µM; with U251 CNS, above 100 µM; in the assay on UO-31 renal, 53.1 µM. Further, the TGI with ACHN renal, in the assay on BT-549 breast, in the assay on IGROV1 ovarian, in the assay with M14 melanoma, in the assay with NCI-H226 lung and in the assay with OVCAR-3 ovarian was above 100 µM each time. The TGI with RPMI-8226 leukemia, in the assay with SK-OV-3 ovarian, with U251 CNS and in the assay with UO-31 renal was above 100 µM throughout.

For `CNC(=O)Nc1nc2ccc([N+](=O)[O-])cc2[nH]1`, the TGI in the assay with ACHN renal, in the assay with BT-549 breast, in the assay with IGROV1 ovarian, in the assay with M14 melanoma, with NCI-H226 lung and in the assay on OVCAR-3 ovarian was above 100 µM in each case. Further, the TGI in the assay on RPMI-8226 leukemia, with SK-OV-3 ovarian, in the assay with U251 CNS and in the assay on UO-31 renal was above 100 µM each time.

Take `Oc1c(-c2nnc(-c3ccccc3Cl)o2)sc2nnc(-c3ccccc3)c(-c3ccccc3)c12`: the GI50 was 3.46 µM with ACHN renal; 12.6 µM in the assay with BT-549 breast; 2.47 µM with IGROV1 ovarian; 5 µM in the assay on M14 melanoma; 16.1 µM in the assay on NCI-H226 lung; 2.64 µM with OVCAR-3 ovarian. Also, the GI50 in the assay with RPMI-8226 leukemia is 2.92 µM; with SK-OV-3 ovarian, 5.14 µM; in the assay on U251 CNS, 2.31 µM; in the assay with UO-31 renal it was 2.38 µM. In addition, the TGI in the assay with ACHN renal was 89.7 µM; with BT-549 breast it was above 100 µM; in the assay with IGROV1 ovarian it was 8.78 µM; with M14 melanoma, 39.3 µM; in the assay with NCI-H226 lung, above 100 µM; in the assay on OVCAR-3 ovarian, 8 µM. For the same molecule, the TGI is above 100 µM with RPMI-8226 leukemia, above 100 µM in the assay on SK-OV-3 ovarian, above 100 µM in the assay with U251 CNS and 8.4 µM with UO-31 renal.

Regarding `O=C(c1ccccc1)c1ccccc1-c1ccccc1`, the GI50 with ACHN renal was 9.46 µM; in the assay on BT-549 breast, 10.3 µM; in the assay on IGROV1 ovarian it was 3.32 µM; with M14 melanoma it was 1.75 µM; in the assay on NCI-H226 lung, 19.6 µM; with OVCAR-3 ovarian, 1.72 µM. The GI50 in the assay on RPMI-8226 leukemia is 4.91 µM; in the assay with SK-OV-3 ovarian, 3.54 µM; with U251 CNS, 4.21 µM; with UO-31 renal, 6.99 µM. Moreover, the TGI with ACHN renal is above 100 µM; with BT-549 breast it was above 100 µM; in the assay on IGROV1 ovarian it was above 100 µM; in the assay with M14 melanoma, 13 µM; in the assay on NCI-H226 lung, above 100 µM; in the assay on OVCAR-3 ovarian, 4.55 µM. The TGI worked out at 52 µM in the assay on RPMI-8226 leukemia, 25.2 µM with SK-OV-3 ovarian, 46.2 µM in the assay with U251 CNS and 98.1 µM in the assay with UO-31 renal.

Values taken from PubChem BioAssay (NCI).
